The values below come from PMC4658133, “Intrinsic Levanase Activity of Bacillus subtilis 168 Levansucrase (SacB)” (PLoS ONE, 2015).

The assay concerns the target T1, levansucrase (SacB) (Bacillus subtilis, UniProt P05655).
T1 construct: expressed in Escherichia coli BL21, ion exchange purified
T1 sequence (P05655 30-473): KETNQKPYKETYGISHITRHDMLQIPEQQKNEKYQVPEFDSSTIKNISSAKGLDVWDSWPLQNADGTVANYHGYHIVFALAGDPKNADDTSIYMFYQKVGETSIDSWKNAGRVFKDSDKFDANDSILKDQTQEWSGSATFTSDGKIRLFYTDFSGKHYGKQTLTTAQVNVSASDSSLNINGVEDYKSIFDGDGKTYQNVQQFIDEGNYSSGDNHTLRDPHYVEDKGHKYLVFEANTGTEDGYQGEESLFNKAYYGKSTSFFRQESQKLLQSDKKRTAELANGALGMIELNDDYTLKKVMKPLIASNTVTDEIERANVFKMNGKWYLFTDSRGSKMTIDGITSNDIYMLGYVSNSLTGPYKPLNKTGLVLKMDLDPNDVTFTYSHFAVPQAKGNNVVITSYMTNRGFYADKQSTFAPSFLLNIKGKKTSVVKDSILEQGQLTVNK
Kind of assay: HPAEC-PAD product profile after […] h. The format is biochemical. Particulars: fructosyl acceptor, 127 mM; donor 2.5 mM LMw levan; 50 mM sodium acetate, 1 mM CaCl2, pH 6.0.

`OC[C@H]1OC(O)[C@H](O)[C@@H](O)[C@@H]1O` (stereo partly shown) [glucose]: the “HPAEC-PAD product profile after 5 h” value is given as “These profile results from the fructosyl transfer from levan to glucose”.
